Series [1] concerns Kasumi-1 cells. Nature of the series: Kasumi-1 cell proliferation inhibition test (Celltiter GLO). It is filed as cell-based. The settings on record: Homo sapiens, 168 h, Kasumi-1, 7 days culture. On the procedure:
(§1) Research had confirmed that LSD1 played a crucial role in the occurrence process of various types of cancers, including small cell lung cancer (SCLC) and acute myeloid leukemia (AML). Therefore, a human acute myeloid leukemia (Kasumi-1) cell line was used to determine the ATP content in cells at different drug concentrations using a Celltiter GLO assay kit, the cell activity was reflected by luminescence intensity, and IC50 values of different compounds on Kasumi-1 cells were calculated using inhibition rates. The inhibitory effects of the compounds in the present application on the proliferation of Kasumi-1 cells were studied to evaluate the anti-tumor efficacy of the tested compounds at the cellular level.
(§2) • Day 1 Cells were seeded into the 384-well cell culture plate and placed in a 37° C. 5% CO2 cell incubator to be cultured overnight. • Day 0 The compound to be tested was prepared into a 10 mM mother liquid using DMSO, starting from 1 M, diluted by 3 folds, with 10 concentration points and double duplicate wells. A diluted compound was added into the 384-well cell culture plate and placed in a 37° C. 5% CO2 cell incubator to be cultured for 7 days. The concentration of the DMSO in a cell culture system was 0.1 vol %. • Day 7 Celltiter GLO was added into the 384-well cell culture plate according to a volume ratio of culture system:Celltiter GLO=1:1, light-shielded oscillation was carried out on a plate oscillator for 3 min, then the cell culture plate was placed at the room temperature for 30 min with light shielded, and the plate was read using a multifunctional microplate reader chemical light emitting module.
An inhibition rate was calculated by utilizing luminescence intensity of the above DMSO group (with DMSO added), test group (with the tested compound or a positive control solution added) and blank group (not treating cells), and a calculation formula was as follows: […]
Using a logarithm of the concentration as an X axis and the percentage inhibition rate as a Y axis, a dose-response curve was fitted using a formula log(inhibitor) vs. response-Variable slope (Four parameters) of analysis software Graphpad Prism 8 to obtain the IC50 value of each compound on Kasumi-1 proliferation inhibition activity.

Series [2] deals with T1, LSD1 (Homo sapiens, UniProt O60341).
T1 construct: purchased Active Motif 31432
The series is described as follows: LSD1 activity test (HTRF). In kind it is biochemical. To be noted: H3(1-21)K4 me1-biotin substrate, read-out: IC50, inhibitory activity on LSD1. On the procedure: In this test, a homogeneous time resolved fluorescence (HTRF) technology was utilized, and the inhibitory activity of compounds on LSD1 was detected by adopting a two-step method. The first step was to incubate LSD1, compounds of different concentrations, and a biotin-labeled methylated polypeptide substrate (H3(1-21)K4 me1-biotin) at the room temperature for fixed time.
A corresponding solution with a 1000-fold final concentration was formed by dilution in a 384-well Source plate, and then Echo550 was used for transferring 10 nL to a 384-well reaction plate for being tested.
An inhibition percentage was calculated using a maximum value, a minimum value, and a signal value (maximum value: fluorescence intensity of 5 μL of 2× enzyme solution+5 μL of 2× substrate mixed solution+10 nL of 100% DMSO+10 μL of detection solution; minimum value: fluorescence intensity of 5 μL of 1× reaction solution+5 μL of 2× substrate mixed solution+10 nL of 100% DMSO+10 μL of detection solution; and signal value: fluorescence intensity of 5 μL of 2× enzyme solution+5 μL of 2× substrate mixed solution+10 nL of diluted compound to be tested+10 μL of detection solution), and a calculation formula was as follows: […]
Using a logarithm of the concentration as an X axis and the percentage inhibition rate as a Y axis, a dose-response curve was fitted using a formula log(inhibitor) vs. response-Variable slope (Four parameters) of analysis software Graphpad Prism 5 to obtain the IC50 value of each compound on the enzyme activity.

The subject of series [3] is NCI-H1417 cells. Nature of the series: NCI-H1417 cell proliferation inhibition test (Celltiter GLO). The settings on record: Homo sapiens, 168 h, NCI-H1417, 7 days culture. In kind it is cell-based. On the procedure:
as §1, with “small cell lung cancer (NCI-H1417)” for “acute myeloid leukemia (Kasumi-1)”, “kit, and” for “kit,”, “intensity.” for “intensity, and”, “the NCI-H1417” for “Kasumi-1”
as §2, with “μM,” for “M,”, “0.1%.” for “0.1 vol %.”
An inhibition percentage was calculated by utilizing luminescence intensity of the above DMSO group (with DMSO added), test group (with the tested compound and a positive control solution added) and blank group (not treating cells), a calculation formula being
Using a logarithm of the concentration as an X axis and the percentage inhibition rate as a Y axis, a dose-response curve was fitted using a formula log(inhibitor) vs. response-Variable slope (Four parameters) of analysis software Graphpad Prism 8 to obtain the IC50 value of each compound on NCI-H1417 proliferation inhibition activity.

A short description of series [4]: Pharmacokinetics of oral administration of rats. It is filed as in vivo. To be noted: male, rat, SD rats, p.o. 5.0 mg/kg, plasma. As to the method:
With SD rats as tested animals, blood drug concentrations in plasma at different moments after oral administration of the compounds of the present application by the rats in a clarification kit mode were determined using an LC-MS/MS method. Pharmacokinetic parameters of the compounds of the present application in the rats were obtained, and pharmacokinetic characteristics of the compounds were studied.
• SD rats, male, weight 180-220 g, 3 rats per group. The animals were fed in an animal house after being purchased, an adaptation period was at least 3 days, and they were used for tests after passing quarantine.
According to Table 4, each group of rats was given the corresponding tested drugs or positive drugs by gavage, before administration, and 15 min, 30 min, 1 h, 2 h, 4 h, 6 h, 8 h, and 24 h after administration, a fixed volume of blood was collected through eye sockets and placed in an EDTA-K2 anticoagulant tube, centrifuging was carried out at 8000 rpm for 1 min to separate plasma into a centrifuge tube, and the plasma was frozen in a −20° C. refrigerator.
The plasma at each time point stored at −20° C. was taken out, then acetonitrile was added, after whirling at 1500 revolutions for 2 min, centrifuging was carried out for 15 min (3500 r/min), and a fixed volume of solution supernatant was taken for LC-MS/MS analysis.
Non-compartment model fitting was carried out on pharmacokinetic behaviors of the tested compounds, and DAS3.31 software was adopted to calculate main pharmacokinetic parameters (T1/2, Tmax, Cmax, AUClast, etc.).

One may read the IC50 as the concentration that inhibits the measured activity by half. A word on the AUC(0-t): it is the area under the concentration-time curve up to a stated or last time point. Read a high AUC(0-t) as high exposure. The term Cmax denotes the maximum level reached in the sampled fluid or tissue. Broadly, the Tmax is the time from dosing to the highest level. Broadly, the half-life is how long it takes for the measured level to halve. Lower therefore signals rapid decline. Take `Cn1ncc2cc(-c3c(C#N)cc(N4CCC(N)CC4)nc3-c3ccc(C#N)c(F)c3)ccc21` [Compound 4, 6-(4-aminopiperid-1-yl)-2-(4-cyano-3-fluorophenyl)-3-(1-methyl-1H-indazol-5-yl)isonicotinonitrile]: the IC50 in series [1] turned out to be 3.07 nM. The IC50 in series [2] is 0.47 nM. Besides, in series [3], the IC50 came out at 16.7 nM. Besides, in series [4], the AUC(0-t) amounted to 712 ± 89.3 ng·h/mL, the concentration peaked (Cmax) at 55 ± 7.72 ng/mL, the Tmax worked out at 6 h and the half-life was 5.31 ± 0.24 h.

As to `CN1C(=O)Cc2cc(-c3c(C#N)cc(N4CCC(N)CC4)nc3-c3ccc(C#N)c(F)c3)ccc21` [Compound 18, 6-(4-aminopiperid-1-yl)-2-(4-cyano-3-fluorophenyl)-3-(1-methyl-2-oxoindol-5-yl)isonicotinonitrile], the IC50 in series [1] worked out at 8.79 nM. The IC50 in series [2] worked out at 1.5 nM. This molecule also showed an IC50 in series [3] of 33.3 nM. Also, in series [4], the AUC(0-t) stood at 591 ± 292 ng·h/mL, the Cmax amounted to 77.2 ± 32.1 ng/mL, the Tmax is 4 h and the half-life was 2.94 ± 0.11 h.

As to `CC(C)(O)Cn1ncc2cc(-c3c(C#N)cc(N4CCCNCC4)nc3-c3ccc(C#N)c(F)c3)c(F)cc21` [Compound 21, 2-(4-cyano-3-fluorophenyl)-6-(1,4-diazaniline-1-yl)-3-(6-fluoro-1-(2-hydroxyl-2-methylpropyl)-1H-indazol-5-yl)isonicotinonitrile], in series [1], 1.03 nM corresponded to half-maximal inhibition (IC50). Besides, in series [2], the IC50 is 0.79 nM. The molecule further came in with an IC50 in series [3] of 6.51 nM. In addition, in series [4], the AUC(0-t) worked out at 721 ± 125 ng·h/mL, the concentration peaked (Cmax) at 81.4 ± 17 ng/mL, the time of peak concentration (Tmax) amounted to 4.67 ± 1.15 h and the half-life was 2.84 ± 0.59 h.

The record behind these values is patent US20250163016A1, “PYRIDINE DERIVATIVE, PREPARATION METHOD THEREFOR AND USE THEREOF” (CHENGDU EASTON BIOPHARMACEUTICALS CO., LTD., priority 2022, published 2025).
